Results reported in ChEMBL document CHEMBL5104192, “Late-Stage Functionalization with Cysteine Staples Generates Potent and Selective Melanocortin Receptor-1 Agonists” (J Med Chem, 2022).
*1 amine or outer side, *2 acyl side, *3 side chain or, on linkers, in order; H or OH if unused. Where a SMILES comes first, the peptide text is derived from it. Bridges are numbered along the chain shown (N, C = ends). [ ]: non-standard residue; d: D form. X9 = O=C(NCCOCCOCCOCCNC(=O)OCC1C2CCc3nnn(CC(=O)N4CCCC[C@H]4C4(O)CN(C(=O)c5ccc(F)c(F)c5Nc5ccc(I)cc5F)C4)c3CCC21)OCC1C2CCc3c([*:1])nnc([*:2])c3CCC21; X8 = NCCNC(=O)OCC1C2CCc3c([*:1])nnc([*:2])c3CCC21; mXylylene = c1cc(C[*:1])cc(C[*:2])c1; oXylylene = c1ccc(C[*:2])c(C[*:1])c1; pXylylene = c1cc(C[*:2])ccc1C[*:1]; NMeR = CN[C@@H](CCCNC(=N)N)C(=O)O; X1 = n1nc([*:2])nnc1[*:1]; Nle = CCCC[C@H](N)C(=O)O

Legend:
[1] = molecular target: T1, Melanocyte-stimulating hormone receptor (Homo sapiens, UniProt Q01726); experiment: Displacement of [125I]-NDP-alpha-MSH from human MC1R expressed in HEK2936E cell membrane measured after 16 to 23 hrs by 1450 microbeta trilux scintillation proximity assay; type: cell membranes
T1 sequence (Q01726 whole entry): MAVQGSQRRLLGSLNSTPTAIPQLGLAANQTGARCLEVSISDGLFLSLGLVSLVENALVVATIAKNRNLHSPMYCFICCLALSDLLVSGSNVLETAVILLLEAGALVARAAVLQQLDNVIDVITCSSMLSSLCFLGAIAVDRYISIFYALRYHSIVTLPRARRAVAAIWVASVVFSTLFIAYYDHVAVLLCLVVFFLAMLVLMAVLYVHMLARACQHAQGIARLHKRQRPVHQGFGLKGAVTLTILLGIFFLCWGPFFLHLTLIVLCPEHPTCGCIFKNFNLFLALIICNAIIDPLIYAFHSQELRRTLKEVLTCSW

Melanocortin receptor 3 [2] = molecular target: T2, Melanocortin receptor 3 (Homo sapiens, UniProt P41968); experiment: Displacement of [125I]-NDP-alpha-MSH from human MC3R expressed in HEK2936E cell membrane measured after 16 to 23 hrs by 1450 microbeta trilux scintillation proximity assay; type: cell membranes
T2 sequence (P41968 whole entry): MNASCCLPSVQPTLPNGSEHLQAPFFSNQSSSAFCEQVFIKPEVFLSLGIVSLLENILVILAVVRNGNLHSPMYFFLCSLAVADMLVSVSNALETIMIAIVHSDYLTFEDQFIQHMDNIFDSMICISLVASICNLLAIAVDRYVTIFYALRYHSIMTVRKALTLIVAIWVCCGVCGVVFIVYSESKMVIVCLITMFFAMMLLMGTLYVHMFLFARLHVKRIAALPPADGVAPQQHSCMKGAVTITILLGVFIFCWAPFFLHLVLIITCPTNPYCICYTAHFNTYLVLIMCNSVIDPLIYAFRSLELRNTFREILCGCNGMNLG

Melanocortin receptor 4 [3] = molecular target: T3, Melanocortin receptor 4 (Homo sapiens, UniProt P32245); experiment: Displacement of [125I]-NDP-alpha-MSH from human MC4R expressed in HEK2936E cell membrane measured after 16 to 23 hrs by 1450 microbeta trilux scintillation proximity assay; type: cell membranes
T3 sequence (P32245 whole entry): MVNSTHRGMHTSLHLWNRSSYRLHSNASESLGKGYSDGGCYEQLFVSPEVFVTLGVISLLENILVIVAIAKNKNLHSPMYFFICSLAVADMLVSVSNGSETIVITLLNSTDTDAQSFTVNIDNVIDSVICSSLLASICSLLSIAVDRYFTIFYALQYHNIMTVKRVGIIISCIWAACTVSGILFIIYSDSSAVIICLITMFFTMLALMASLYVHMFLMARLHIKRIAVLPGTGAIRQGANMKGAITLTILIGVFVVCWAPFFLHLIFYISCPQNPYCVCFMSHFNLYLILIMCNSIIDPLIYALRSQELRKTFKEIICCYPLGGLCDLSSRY

Homo sapiens [4] = organism: Homo sapiens; experiment: Selectivity ratio of Ki for human MC3R to Ki for human MC1R
Homo sapiens [5] = organism: Homo sapiens; experiment: Selectivity ratio of Ki for human MC4R to Ki for human MC1R
[6] = molecular target: T1, Melanocyte-stimulating hormone receptor; experiment: Agonist activity at human MC1R expressed in HEK2936E cells assessed as cAMP production in presence of IBMX by time resolved fluorescence assay; type: functional, cell-based
Melanocortin receptor 3 [7] = molecular target: T2, Melanocortin receptor 3; experiment: Agonist activity at human MC3R expressed in HEK2936E cells assessed as cAMP production in presence of IBMX by time resolved fluorescence assay; type: functional, cell-based
Melanocortin receptor 4 [8] = molecular target: T3, Melanocortin receptor 4; experiment: Agonist activity at human MC4R expressed in HEK2936E cells assessed as cAMP production in presence of IBMX by time resolved fluorescence assay; type: functional, cell-based
Homo sapiens [9] = organism: Homo sapiens; experiment: Selectivity ratio of EC50 for human MC3R to EC50 for human MC1R
Homo sapiens [10] = organism: Homo sapiens; experiment: Selectivity ratio of EC50 for human MC4R to EC50 for human MC1R

SMILES	Ki [1] [nM]	Ki (Melanocortin receptor 3 [2]) [nM]	Ki (Melanocortin receptor 4 [3]) [nM]	Ratio Ki (Homo sapiens [4])	Ratio Ki (Homo sapiens [5])	EC50 ([6]; read-out: EC50) [nM]	EC50 ([6]; read-out: pEC50 (converted)) [nM]	EC50 (Melanocortin receptor 3 [7]) [nM]	EC50 (Melanocortin receptor 4 [8]) [nM]	Ratio EC50 (Homo sapiens [9])	Ratio EC50 (Homo sapiens [10])
CCCC[C@@H]1NC(=O)[C@@H]2CSc3nnc(nn3)SC[C@H](NC(=O)[C@H](CCCNC(=N)N)NC(=O)[C@H](CC(=O)O)NC(=O)[C@H](Cc3c[nH]c4ccccc34)NC(=O)[C@H](CCCNC(=N)N)NC(=O)[C@H](Cc3ccccc3)NC(=O)[C@H](Cc3cnc[nH]3)NC(=O)CNC1=O)C(=O)N[C@@H](Cc1cnc[nH]1)C(=O)N[C@@H](Cc1ccccc1)C(=O)N[C@@H](CCCNC(=N)N)C(=O)N[C@@H](Cc1c[nH]c3ccccc13)C(=O)N[C@@H](CCCNC(=N)N)C(=O)N2 (cyclo(CHFRWRC[Nle]GHFRWDR); linker 1-7 via X1)	0.724	11	33.9	15	47	0.004	0.0447	0.182	1.78	4	40
CC[C@H](C)[C@@H]1NC(=O)[C@@H]2CCCN2C(=O)[C@H](Cc2c[nH]c3ccccc23)NC(=O)[C@H](CCCNC(=N)N)N(C)C(=O)[C@H](Cc2ccccc2)NC(=O)[C@H](Cc2cnc[nH]2)NC(=O)[C@H]([C@@H](C)O)NC(=O)[C@@H](NC(C)=O)CSSC[C@@H](C(N)=O)NC1=O (Ac-CTHF[NMeR]WPIC-NH2; disulfide 1-9)	195	3980	347	20	2	–	8.71	39.8	60.3	5	7
CCCC[C@@H]1NC(=O)[C@@H]2CSCc3cccc(c3)CSC[C@H](NC(=O)[C@H](CCCNC(=N)N)NC(=O)[C@H](CC(=O)O)NC(=O)[C@H](Cc3c[nH]c4ccccc34)NC(=O)[C@H](CCCNC(=N)N)NC(=O)[C@H](Cc3ccccc3)NC(=O)[C@H](Cc3cnc[nH]3)NC(=O)CNC1=O)C(=O)N[C@@H](Cc1cnc[nH]1)C(=O)N[C@@H](Cc1ccccc1)C(=O)N[C@@H](CCCNC(=N)N)C(=O)N[C@@H](Cc1c[nH]c3ccccc13)C(=O)N[C@@H](CCCNC(=N)N)C(=O)N2 (cyclo(CHFRWRC[Nle]GHFRWDR); linker 1-7 via mXylylene)	0.407	13.5	–	–	–	–	0.0871	0.309	–	–	–
CCCC[C@@H]1NC(=O)[C@@H]2CSc3nnc(c4c3CCC3C(CC4)C3COC(=O)NCCOCCOCCOCCNC(=O)OCC3C4CCc5c6nnc(c5CCC43)SC[C@@H]3NC(=O)[C@H](CCCNC(=N)N)NC(=O)[C@H](CC(=O)O)NC(=O)[C@H](Cc4c[nH]c5ccccc45)NC(=O)[C@H](CCCNC(=N)N)NC(=O)[C@H](Cc4ccccc4)NC(=O)[C@H](Cc4cnc[nH]4)NC(=O)CNC(=O)[C@H](CCCC)NC(=O)[C@H](CS6)NC(=O)[C@H](CCCNC(=N)N)NC(=O)[C@H](Cc4c[nH]c5ccccc45)NC(=O)[C@H](CCCNC(=N)N)NC(=O)[C@H](Cc4ccccc4)NC(=O)[C@H](Cc4cnc[nH]4)NC3=O)SC[C@H](NC(=O)[C@H](CCCNC(=N)N)NC(=O)[C@H](CC(=O)O)NC(=O)[C@H](Cc3c[nH]c4ccccc34)NC(=O)[C@H](CCCNC(=N)N)NC(=O)[C@H](Cc3ccccc3)NC(=O)[C@H](Cc3cnc[nH]3)NC(=O)CNC1=O)C(=O)N[C@@H](Cc1cnc[nH]1)C(=O)N[C@@H](Cc1ccccc1)C(=O)N[C@@H](CCCNC(=N)N)C(=O)N[C@@H](Cc1c[nH]c3ccccc13)C(=O)N[C@@H](CCCNC(=N)N)C(=O)N2 (stereo partly drawn)	2.24	37.2	91.2	17	41	–	–	–	–	–	–
CCCC[C@@H]1NC(=O)[C@@H]2CSc3nnc(c4c3CCC3C(CC4)C3COC(=O)NCCNC(=O)CCOCCOCCOCCOCCOCCC(=O)NCCNC(=O)OCC3C4CCc5c6nnc(c5CCC43)SC[C@@H]3NC(=O)[C@H](CCCNC(=N)N)NC(=O)[C@H](CC(=O)O)NC(=O)[C@H](Cc4c[nH]c5ccccc45)NC(=O)[C@H](CCCNC(=N)N)NC(=O)[C@H](Cc4ccccc4)NC(=O)[C@H](Cc4cnc[nH]4)NC(=O)CNC(=O)[C@H](CCCC)NC(=O)[C@H](CS6)NC(=O)[C@H](CCCNC(=N)N)NC(=O)[C@H](Cc4c[nH]c5ccccc45)NC(=O)[C@H](CCCNC(=N)N)NC(=O)[C@H](Cc4ccccc4)NC(=O)[C@H](Cc4cnc[nH]4)NC3=O)SC[C@H](NC(=O)[C@H](CCCNC(=N)N)NC(=O)[C@H](CC(=O)O)NC(=O)[C@H](Cc3c[nH]c4ccccc34)NC(=O)[C@H](CCCNC(=N)N)NC(=O)[C@H](Cc3ccccc3)NC(=O)[C@H](Cc3cnc[nH]3)NC(=O)CNC1=O)C(=O)N[C@@H](Cc1cnc[nH]1)C(=O)N[C@@H](Cc1ccccc1)C(=O)N[C@@H](CCCNC(=N)N)C(=O)N[C@@H](Cc1c[nH]c3ccccc13)C(=O)N[C@@H](CCCNC(=N)N)C(=O)N2 (stereo partly drawn)	0.661	11.5	30.9	17	47	–	–	–	–	–	–
CCCC[C@@H]1NC(=O)[C@@H]2CSc3nnc(c4c3CCC3C(CC4)C3COC(=O)NCCOCCOCCOCCNC(=O)OCC3C4CCc5nnn(CC(=O)N6CCCC[C@H]6C6(O)CN(C(=O)c7ccc(F)c(F)c7Nc7ccc(I)cc7F)C6)c5CCC43)SC[C@H](NC(=O)[C@H](CCCNC(=N)N)NC(=O)[C@H](CC(=O)O)NC(=O)[C@H](Cc3c[nH]c4ccccc34)NC(=O)[C@H](CCCNC(=N)N)NC(=O)[C@H](Cc3ccccc3)NC(=O)[C@H](Cc3cnc[nH]3)NC(=O)CNC1=O)C(=O)N[C@@H](Cc1cnc[nH]1)C(=O)N[C@@H](Cc1ccccc1)C(=O)N[C@@H](CCCNC(=N)N)C(=O)N[C@@H](Cc1c[nH]c3ccccc13)C(=O)N[C@@H](CCCNC(=N)N)C(=O)N2 (stereo partly drawn) (cyclo(CHFRWRC[Nle]GHFRWDR); linker 1-7 via X9)	2.14	51.3	170	24	79	–	–	–	–	–	–

Second part, the compound after the results:

Ki [1] [nM]	Ki (Melanocortin receptor 3 [2]) [nM]	Ki (Melanocortin receptor 4 [3]) [nM]	Ratio Ki (Homo sapiens [4])	Ratio Ki (Homo sapiens [5])	EC50 ([6]; read-out: EC50) [nM]	EC50 ([6]; read-out: pEC50 (converted)) [nM]	EC50 (Melanocortin receptor 3 [7]) [nM]	EC50 (Melanocortin receptor 4 [8]) [nM]	Ratio EC50 (Homo sapiens [9])	Ratio EC50 (Homo sapiens [10])	SMILES
0.417	10.2	33.1	25	79	–	–	–	–	–	–	CCCC[C@@H]1NC(=O)[C@@H]2CSc3nnc(c4c3CCC3C(CC4)C3COC(=O)NCCOCCOCCNC(=O)CCOCCOCCOCCOCCOCCC(=O)NCCOCCOCCNC(=O)OCC3C4CCc5c6nnc(c5CCC43)SC[C@@H]3NC(=O)[C@H](CCCNC(=N)N)NC(=O)[C@H](CC(=O)O)NC(=O)[C@H](Cc4c[nH]c5ccccc45)NC(=O)[C@H](CCCNC(=N)N)NC(=O)[C@H](Cc4ccccc4)NC(=O)[C@H](Cc4cnc[nH]4)NC(=O)CNC(=O)[C@H](CCCC)NC(=O)[C@H](CS6)NC(=O)[C@H](CCCNC(=N)N)NC(=O)[C@H](Cc4c[nH]c5ccccc45)NC(=O)[C@H](CCCNC(=N)N)NC(=O)[C@H](Cc4ccccc4)NC(=O)[C@H](Cc4cnc[nH]4)NC3=O)SC[C@H](NC(=O)[C@H](CCCNC(=N)N)NC(=O)[C@H](CC(=O)O)NC(=O)[C@H](Cc3c[nH]c4ccccc34)NC(=O)[C@H](CCCNC(=N)N)NC(=O)[C@H](Cc3ccccc3)NC(=O)[C@H](Cc3cnc[nH]3)NC(=O)CNC1=O)C(=O)N[C@@H](Cc1cnc[nH]1)C(=O)N[C@@H](Cc1ccccc1)C(=O)N[C@@H](CCCNC(=N)N)C(=O)N[C@@H](Cc1c[nH]c3ccccc13)C(=O)N[C@@H](CCCNC(=N)N)C(=O)N2 (stereo partly drawn)
0.245	13.8	–	–	–	–	0.0891	0.331	–	–	–	CCCC[C@@H]1NC(=O)[C@@H]2CSCc3ccc(cc3)CSC[C@H](NC(=O)[C@H](CCCNC(=N)N)NC(=O)[C@H](CC(=O)O)NC(=O)[C@H](Cc3c[nH]c4ccccc34)NC(=O)[C@H](CCCNC(=N)N)NC(=O)[C@H](Cc3ccccc3)NC(=O)[C@H](Cc3cnc[nH]3)NC(=O)CNC1=O)C(=O)N[C@@H](Cc1cnc[nH]1)C(=O)N[C@@H](Cc1ccccc1)C(=O)N[C@@H](CCCNC(=N)N)C(=O)N[C@@H](Cc1c[nH]c3ccccc13)C(=O)N[C@@H](CCCNC(=N)N)C(=O)N2 (cyclo(CHFRWRC[Nle]GHFRWDR); linker 1-7 via pXylylene)
< 0.0055	0.631	0.912	115	166	–	–	–	–	–	–	CCCC[C@@H]1NC(=O)[C@@H]2CSc3nnc(c4c3CCC3C(CC4)C3COC(=O)NCCN)SC[C@H](NC(=O)[C@H](CCCNC(=N)N)NC(=O)[C@H](CC(=O)O)NC(=O)[C@H](Cc3c[nH]c4ccccc34)NC(=O)[C@H](CCCNC(=N)N)NC(=O)[C@H](Cc3ccccc3)NC(=O)[C@H](Cc3cnc[nH]3)NC(=O)CNC1=O)C(=O)N[C@@H](Cc1cnc[nH]1)C(=O)N[C@@H](Cc1ccccc1)C(=O)N[C@@H](CCCNC(=N)N)C(=O)N[C@@H](Cc1c[nH]c3ccccc13)C(=O)N[C@@H](CCCNC(=N)N)C(=O)N2 (stereo partly drawn) (cyclo(CHFRWRC[Nle]GHFRWDR); linker 1-7 via X8)
1.58	26.3	–	–	–	–	0.195	0.347	–	–	–	CCCC[C@@H]1NC(=O)[C@@H]2CSCc3ccccc3CSC[C@H](NC(=O)[C@H](CCCNC(=N)N)NC(=O)[C@H](CC(=O)O)NC(=O)[C@H](Cc3c[nH]c4ccccc34)NC(=O)[C@H](CCCNC(=N)N)NC(=O)[C@H](Cc3ccccc3)NC(=O)[C@H](Cc3cnc[nH]3)NC(=O)CNC1=O)C(=O)N[C@@H](Cc1cnc[nH]1)C(=O)N[C@@H](Cc1ccccc1)C(=O)N[C@@H](CCCNC(=N)N)C(=O)N[C@@H](Cc1c[nH]c3ccccc13)C(=O)N[C@@H](CCCNC(=N)N)C(=O)N2 (cyclo(CHFRWRC[Nle]GHFRWDR); linker 1-7 via oXylylene)
